# Laboratory results from patent US20230146455A1, “TREATMENT OF INFLAMMATORY DISEASES WITH PEPTIDES AND PHARMACEUTICAL COMPOSITIONS” (Yuyu Pharma, Inc., priority 2020, published 2023).
# “And” between values parts separate entries of the source, which are not always exact repeats. Identical values can stand only once. Where a SMILES comes first, the peptide text is derived from it. [ ]: non-standard residue; d: D form. Hyp = O=C(O)[C@@H]1C[C@@H](O)CN1
# Experiments:
# [1] = tested on: CCL4/MIP-1 beta; test: Example 9 Luminex, LPS hPBMCs: CCL4/MIP-1 beta; assay type: cell-based, human; conditions: PBMC + LPS(5 ug/ml); for MFI (Bead name: CCL4/MIP-1 beta): dilution 10
# Protocol: Treatment Human PBMCs were pretreated with YY-101, YDE-011 and YDE-043 or reference compound; Xiidra® at various concentration (ranging from 1 nM to 100 uM) for 2 h before stimulation. An equal volume of 0.5% DMSO was used as a vehicle control. Then, the cells were treated with LPS at 5 ug/ml. The supernatants from treated cells were harvested at 24 h and placed in a 96 well for Luminex cytokine & chemokine profiling using a Luminex 200 multiplex assay (Luminex; R&D system, USA).
# The main study arm with triplicate wells per group in a 24-well plate: • 1. Blank • 2. PBMC: 0.5% DMSO • 3. PBMC+LPS (5 ug/ml) • 4. PBMC+YY-101 100 uM • 5. PBMC+YY-101 10 uM • 6. PBMC+YY-101 1 uM • 7. PBMC+YY-101 0.1 uM • 8. PBMC+YY-101 0.01 uM • 9. PBMC+LPS (5 ug/ml)+Xiidra®100 uM • 10. PBMC+LPS (5 ug/ml)+Xiidra® 10 uM • 11. PBMC+LPS (5 ug/ml)+Xiidra® 1 uM • 12. PBMC+LPS (5 ug/ml)+Xiidra®0.1 uM • 13. PBMC+LPS (5 ug/ml)+Xiidra®0.01 uM • 14. PBMC+LPS (5 ug/ml)+Xiidra®0.001 uM • 15. PBMC+LPS (5 ug/ml)+YY-101 100 uM • 16. PBMC+LPS (5 ug/ml)+YY-101 10 uM • 17. PBMC+LPS (5 ug/ml)+YY-101 1 uM • 18. PBMC+LPS (5 ug/ml)+YY-101 0.1 uM • 19. PBMC+LPS (5 ug/ml)+YY-101 0.01 uM • 20. PBMC+LPS (5 ug/ml)+YY-101 0.001 uM • 21. PBMC+LPS (5 ug/ml)+YDE-011 100 uM • 22. PBMC+LPS (5 ug/ml)+YDE-011 10 uM • 23. PBMC+LPS (5 ug/ml)+YDE-011 1 uM • 24. PBMC+LPS (5 ug/ml)+YDE-011 0.1 uM • 25. PBMC+LPS (5 ug/ml)+YDE-011 0.01 uM • 26. PBMC+LPS (5 ug/ml)+YDE-011 0.001 uM • 27. PBMC+LPS (5 ug/ml)+YDE-043 100 uM • 28. PBMC+LPS (5 ug/ml)+YDE-043 10 uM • 29. PBMC+LPS (5 ug/ml)+YDE-043 1 uM • 30. PBMC+LPS (5 ug/ml)+YDE-043 0.1 uM • 31. PBMC+LPS (5 ug/ml)+YDE-043 0.01 uM • 32. PBMC+LPS (5 ug/ml)+YDE-043 0.001 uM
# Multiplex assay was used to measure 30 cytokines and chemokines. The 1:2, 1:10 and 1:200 diluted cell supernatant and serial dilution of the standard were dispensed into a 96 well plate at 50 ul/well. Then, the pre-mixed cocktail of antibody-coated magnetic beads was dispensed at 50 ul/well and incubated at room temperature for 2 h in a horizontal orbital microplate shaker at 800±500 rpm. The beads were washed using a magnetic device to prevent loss. The biotin-antibody was dispensed in 50 ul of each well and incubated at room temperature for 1 h in a shaker at 800±500 rpm. After washing, streptavidin-PE was added at 50 ul/well and incubated at room temperature for 30 min in a shaker under the same conditions. Finally, after washing, wash buffer (100 ul/well) was added to the plate and incubated in a shaker for 2 min. The Luminex™ 200 setting were set according to the manufacturer's protocol. The data was calculated with a standard five-parameter logistic nonlinear regression analysis of the data (xPonent software 4.2, USA). The levels of cytokine/chemokine are normalized to the live cell counts (1×10^5 cells/mL) and presented as concentrations per mL (pg/mL or ng/mL).
# [2] = tested on: IL-6 cytokine release in poly I:C stimulated primary human corneal epithelial cells; test: Soluble IL-6 cytokine release in poly I:C stimulated primary human corneal epithelial cells by ELISA (Example 6); assay type: cell-based
# Text: To determine the effect of compound by assessing the soluble IL-6 cytokine release in poly I:C stimulated primary human corneal epithelial cells by ELISA. • Test System: Primary Human Corneal Epithelial cells • Assay Format: 96-well plate format • Method of Detection: Enzyme-linked immunosorbent assay • Assay Controls: Hinokitiol Assay protocol as shown below was used to determine the significant effect of test compounds. The data was statistically analyzed by one-way ANOVA with a Bonferroni post test comparing all the columns. The significance was represented by the p value.
# [3] = test article 0.001 uM, single replicates
# [4] = test article 0.01 uM, single replicates
# [5] = test article 0.1 uM, single replicates
# [6] = test article 1 uM, single replicates
# [7] = test article 10 uM, single replicates
# [8] = test article 100 uM, single replicates
compound,measurement,setting,value
CC(C)C[C@H](NC(=O)[C@H](CCC(N)=O)NC(=O)CNC(=O)[C@@H]1C[C@@H](O)CN1)C(=O)NCC(=O)O [YDE-043] (H-[Hyp]GQLG-OH; N-terminus and C-terminus assumed),Concentration (CCL4/MIP-1 beta),"[1]; test article 0.001 uM, Mean",7716.4 pg/mL
same,conc/live cell (CCL4/MIP-1 beta),"[1]; test article 0.001 uM, Mean",1568.7 pg/10^5
same,MFI (Bead name: CCL4/MIP-1 beta),"[1]; test article 0.001 uM, Mean",177.7
same,MFI (Bead name: CCL4/MIP-1 beta),[1]; [3],165.5 and 185.0 and 182.5
same,Concentration (CCL4/MIP-1 beta),[1]; [3],7441.6 pg/mL and 7881.5 pg/mL and 7826.1 pg/mL
same,conc/live cell (CCL4/MIP-1 beta),[1]; [3],1691.3 pg/10^5 and 1313.6 pg/10^5 and 1701.3 pg/10^5
same,Concentration (CCL4/MIP-1 beta),"[1]; test article 0.01 uM, Mean",7755.3 pg/mL
same,conc/live cell (CCL4/MIP-1 beta),"[1]; test article 0.01 uM, Mean",1483.8 pg/10^5
same,MFI (Bead name: CCL4/MIP-1 beta),"[1]; test article 0.01 uM, Mean",179.3
same,MFI (Bead name: CCL4/MIP-1 beta),[1]; [4],178.0 and 177.0 and 183.0
same,Concentration (CCL4/MIP-1 beta),[1]; [4],7725.6 pg/mL and 7703.2 pg/mL and 7837.2 pg/mL
same,conc/live cell (CCL4/MIP-1 beta),[1]; [4],1716.8 pg/10^5 and 1167.1 pg/10^5 and 1567.4 pg/10^5
same,Concentration (CCL4/MIP-1 beta),"[1]; test article 0.1 uM, Mean",7358.9 pg/mL
same,conc/live cell (CCL4/MIP-1 beta),"[1]; test article 0.1 uM, Mean",1365.2 pg/10^5
same,MFI (Bead name: CCL4/MIP-1 beta),"[1]; test article 0.1 uM, Mean",162.0
same,MFI (Bead name: CCL4/MIP-1 beta),[1]; [5],153.5 and 159.5 and 173.0
same,Concentration (CCL4/MIP-1 beta),[1]; [5],7161.3 pg/mL and 7302.4 pg/mL and 7612.9 pg/mL
same,conc/live cell (CCL4/MIP-1 beta),[1]; [5],1432.3 pg/10^5 and 1304.0 pg/10^5 and 1359.5 pg/10^5
same,Concentration (CCL4/MIP-1 beta),"[1]; test article 1 uM, Mean",7359.3 pg/mL
same,conc/live cell (CCL4/MIP-1 beta),"[1]; test article 1 uM, Mean",1391.3 pg/10^5
same,MFI (Bead name: CCL4/MIP-1 beta),"[1]; test article 1 uM, Mean",162.3
same,MFI (Bead name: CCL4/MIP-1 beta),[1]; [6],175.0 (2×) and 137.0
same,Concentration (CCL4/MIP-1 beta),[1]; [6],7658.2 pg/ml (2×) and 6761.7 pg/ml
same,conc/live cell (CCL4/MIP-1 beta),[1]; [6],1320.4 pg/10^5 and 1408.7 pg/10^5 and 1444.9 pg/10^5
same,Concentration (CCL4/MIP-1 beta),"[1]; test article 10 uM, Mean",7298.5 pg/mL
same,conc/live cell (CCL4/MIP-1 beta),"[1]; test article 10 uM, Mean",1352.7 pg/10^5
same,MFI (Bead name: CCL4/MIP-1 beta),"[1]; test article 10 uM, Mean",159.3
same,MFI (Bead name: CCL4/MIP-1 beta),[1]; [7],159.0 and 158.0 and 161.0
same,Concentration (CCL4/MIP-1 beta),[1]; [7],7290.8 pg/mL and 7267.3 pg/mL and 7337.4 pg/mL
same,conc/live cell (CCL4/MIP-1 beta),[1]; [7],1402.1 pg/10^5 and 1345.8 pg/10^5 and 1310.3 pg/10^5
same,Concentration (CCL4/MIP-1 beta),"[1]; test article 100 uM, Mean",6094.9 pg/mL
same,conc/live cell (CCL4/MIP-1 beta),"[1]; test article 100 uM, Mean",968.2 pg/10^5
same,MFI (Bead name: CCL4/MIP-1 beta),"[1]; test article 100 uM, Mean",111.3
same,MFI (Bead name: CCL4/MIP-1 beta),[1]; [8],118.5 and 104.0
same,Concentration (CCL4/MIP-1 beta),[1]; [8],6290.4 pg/mL and 5899.5 pg/mL
same,conc/live cell (CCL4/MIP-1 beta),[1]; [8],1014.6 pg/10^5 and 921.8 pg/10^5
same,Poly I:C induced IL-6 cytokine release (in words),[2],attenuate Poly I:C induced of IL-6 cytokine release in a dose dependent manner
same,tested concentrations with significant attenuation of IL-6 cytokine release,[2],"30 μM, 10 μM, 1 μM and 0.1 μM"
